Assays:
primary astrocytes = assay: Intracellular ATP levels in primary astrocytes; assay type: cell-based
Source text: Antimycin A and myxothiazol were used as positive controls to inhibit mitochondrial respiration and ATP production. n=3 wells per condition. ***p<0.001 vs. vehicle, mixed-effects model with Dunnett's multiple comparisons test.

astrocytes = assay: Oxygen consumption rates (mitochondrial respiration) in astrocytes; assay type: cell-based
Source text: Oxygen consumption rates (OCR) and maximal consumption rates are shown for indicated S3QEL2 concentrations and time points. Antimycin and rotenone were used as positive controls to inhibit mitochondrial respiration. ***p<0.001 vs. vehicle, two-way repeated measures ANOVA with Dunnett's multiple comparisons test.

Row | Compound | Intracellular ATP levels (primary astrocytes) | Mitochondrial respiration (oxygen consumption rates, OCR) (astrocytes)
1 | CO/C(=C/C(N)=O)[C@H](C)[C@H](/C=C/c1csc(-c2csc([C@@H](C)/C=C/C=C/C(C)C)n2)n1)OC [myxothiazol] | greatly reduce | 
2 | antimycin A | greatly reduce | greatly reduce
3 | C=C(C)[C@H]1Cc2c(ccc3c2O[C@@H]2COc4cc(OC)c(OC)cc4[C@@H]2C3=O)O1 [rotenone] |  | greatly reduce
